Experimental data taken from patent US9750698B2, “Controlled release compositions of agents that reduce circulating levels of platelets and methods therefor” (BioVascular, Inc., priority 2008, dated 2017).
Blank lines part the entries; values can stand above or below the molecule they belong to.

What was measured:
[1] = 38 volunteers, single 1 mg dose of immediate release anagrelide (Agrylin); cited from earlier work
[2] = patients with ET or other myeloproliferative diseases; cited from earlier work
cultured megakaryocytes = settings: cited from earlier work
PDEIII = settings: cited from earlier work
[3] = Pre-formulation excipient compatibility by high sensitivity isothermal calorimetry; format: physicochemical; settings: binary mixture 1:1, isothermal calorimetry, 24 hours, 30-80° C.
Experimental: Pre-formulation studies utilizing binary mixtures of the API with various excipients (ethylcellulose, Eudragit® RS and RL, Aquacoat® ECD30, ammonium oleate and Surelease® E7 1904) were conducted using a high sensitivity calorimeter in isothermal mode. Excipients were compared on their own and as mixtures with/without saturated sodium chloride solution present. In this technique, the heat changes in samples (API alone, excipient alone, API:excipient (1:1 ratio)) were monitored over 24 hours at a temperature range of 30-80° C. […] Improved dosage forms were formed by employing ethylcellulose in the excipient system and a mode of application including organic (ethanol) spray application due to the insolubility of ethylcellulose in water.

[4] = Repeat-dose dose-escalation study of controlled release anagrelide: pharmacokinetics; format: in vivo, human; settings: for AUC0-inf / AUC0-t / AUC0-τ / Cmax: dose-normalized to 0.2 mg
Experimental: A placebo-controlled, double-blind repeat-dose, dose-escalation, sequential cohort study was conducted to evaluate the pharmacokinetics and pharmacodynamics of a controlled release composition of anagrelide as described herein in healthy subjects. An objective of the study was to explore the dose-response relationship for effects on platelet counts of a low dose range of a composition of anagrelide as described herein in healthy subjects. Other objectives of the study included determining the time course of effect and recovery of a range of doses of the composition including anagrelide on platelet count, determining the effects of a range of doses of the anagrelide compositions on platelet aggregation (collagen and ADP as agonists), determining the single and repeat dose pharmacokinetics of the anagrelide composition, and exploring the safety and tolerability of the compositions given as single doses and repeatedly for up to 21 days.
Eligible subjects were treated as follows: • Subjects were admitted to the unit on day 1 in the morning after an overnight fast and remain in the unit until 4 hours after morning dosing on day 5. • Subjects received a single dose of controlled release composition including anagrelide (or matching placebo) on day 1 in the morning. • Subjects commenced repeat dosing twice a day with the controlled release anagrelide composition on the morning of day 3 and remained in the unit until 4 hours after morning dose on day 5. • Subjects continued repeat twice a day dosing with the controlled release anagrelide composition as outpatients. Dosing continued until the morning of day 23. • All morning doses were taken after an overnight fast of at least 8 hour. • All evening doses were taken at least 2 hour after food consumption. No food was to be consumed for at least 1 hour after any dose (4 hours for the morning doses on day 1 and day 23). • On day 6-day 21, blood was taken pre-dosing of the controlled release anagrelide composition for full blood count (FBC) and platelet count (every day), trough PK (day 7, day 10, day 13, day 16 and day 19) and clinical chemistry (day 13). • Subjects were readmitted to the unit on the morning of day 22 and remained there until day 25 so that the PK of the final dose of the controlled release composition containing anagrelide on day 23 could be followed for 48 hours. • Subjects returned to the clinic daily from day 26 to day 31 for FBC and platelet counts. • Subjects returned for a follow up visit 14-16 days after the last dose of the controlled release composition containing anagrelide. Study Population:
A controlled release composition of anagrelide as described above in Table 4 of Example 1 (composition 2 fast release with seal coat) was used in unit doses of 100 μg and 300 μg, administered orally.
In this protocol, 4 cohorts of 200 μg, 300 μg, 400 μg and 600 μg doses of the controlled release composition including anagrelide administered twice daily were studied.
Platelet count, collagen-induced platelet aggregation, ADP induced platelet aggregation, template bleeding time, AUC0-t, AUC0-∞, Cmax, Cmin, t1/2, λZ and tmax were determined.
The starting dose of 200 μg (as a single dose on day 1 and then twice a day for 21 days) was chosen as a dose unlikely to cause any clinically significant reduction in platelet counts in healthy subjects. This starting dose was chosen because identification of the lowest dose of the controlled release composition containing anagrelide producing any effect on platelet counts was of interest. In each subsequent cohort the dose was increased by […] twice a day with the objective of identifying the dose range that lowers platelet counts by 30-50%. With daily monitoring of platelet counts, this escalation was determined to allow identification of the effective dose range of the controlled release composition of anagrelide without placing the subjects at significant clinical risk.

[5] = commercially available instant release formulation; cited from earlier work

SMILES: NC1=Nc2ccc(Cl)c(Cl)c2CN1 [RL603, 2-amino-5,6-dichloro-3,4-dihydroquinazoline]
AUC0-inf ± RSD (%) [1]: 16.0 ± 32.3 ng·h/mL
Cmax ± RSD (%) [1]: 1.36 ± 34.0 ng/mL
Tmax ± RSD (%) [1]: 2.5 ± 58.5 h
t1/2 ± RSD (%) [1]: 7.8 ± 31.1 h
Observed half-life [2]: 8.7 h
Share of all drug-related products in the plasma [2]: about 33%
Activity on TPO-induced stimulation of megakaryocytes / megakaryocytopoiesis (cultured megakaryocytes): essentially inactive
Activity against PDE III (PDEIII): essentially inactive

SMILES: Cl.O.O=C1CN2Cc3c(ccc(Cl)c3Cl)N=C2N1 [API, 6,7-dichloro-1,5-dihydroimidazo-[2,1-b]quinazolin-2(3H)-one mono-hydrochloride monohydrate]
Compatibility with Aquacoat [3]: not conclusive as to compatibility
Compatibility with Eudragit (RS and RL) [3]: showed evidence of incompatibility
Compatibility with Surelease [3]: showed evidence of incompatibility
Compatibility with ammonium oleate [3]: showed evidence of incompatibility
Compatibility with ethylcellulose [3]: showed evidence of compatibility

Kel ([4]; cohort 1 (0.2 mg), day 1): 0.0985 h⁻¹
t1/2 ([4]; cohort 1 (0.2 mg), day 1): 7.78 h
Kel ([4]; cohort 1 (0.2 mg), day 23): 0.0608 h⁻¹
t1/2 ([4]; cohort 1 (0.2 mg), day 23): 12.69 h
Kel ([4]; cohort 2 (0.4 mg), day 1): 0.0641 h⁻¹
t1/2 ([4]; cohort 2 (0.4 mg), day 1): 11.64 h
Kel ([4]; cohort 2 (0.4 mg), day 23): 0.0527 h⁻¹
t1/2 ([4]; cohort 2 (0.4 mg), day 23): 13.77 h
Kel ([4]; cohort 3 (0.6 mg), day 1): 0.0673 h⁻¹
t1/2 ([4]; cohort 3 (0.6 mg), day 1): 12.87 h
Kel ([4]; cohort 4 (0.3 mg), day 1): 0.0596 h⁻¹
t1/2 ([4]; cohort 4 (0.3 mg), day 1): 15.30 h
Kel ([4]; cohort 4 (0.3 mg), day 23): 0.0492 h⁻¹
t1/2 ([4]; cohort 4 (0.3 mg), day 23): 15.13 h
AUC0-inf ([4]; cohort 1 (0.2 mg), day 1): 4.6957 ng·h/mL
AUC0-t ([4]; cohort 1 (0.2 mg), day 1): 4.04622 ng·h/mL
AUC0-τ ([4]; cohort 1 (0.2 mg), day 1): 4.17916 ng·h/mL
Cmax ([4]; cohort 1 (0.2 mg), day 1): 0.61542 ng/mL
AUC0-inf ([4]; cohort 1 (0.2 mg), day 23): 7.27841 ng·h/mL
AUC0-τ ([4]; cohort 1 (0.2 mg), day 23): 5.66247 ng·h/mL
Cmax ([4]; cohort 1 (0.2 mg), day 23): 0.75569 ng/mL
AUC0-inf ([4]; cohort 2 (0.4 mg), day 1): 3.98674 ng·h/mL
AUC0-t ([4]; cohort 2 (0.4 mg), day 1): 3.36645 ng·h/mL
AUC0-τ ([4]; cohort 2 (0.4 mg), day 1): 3.04925 ng·h/mL
Cmax ([4]; cohort 2 (0.4 mg), day 1): 0.35828 ng/mL
AUC0-inf ([4]; cohort 2 (0.4 mg), day 23): 6.18331 ng·h/mL
AUC0-τ ([4]; cohort 2 (0.4 mg), day 23): 4.8106 ng·h/mL
Cmax ([4]; cohort 2 (0.4 mg), day 23): 0.5158 ng/mL
AUC0-inf ([4]; cohort 3 (0.6 mg), day 1): 4.6058 ng·h/mL
AUC0-t ([4]; cohort 3 (0.6 mg), day 1): 3.93912 ng·h/mL
AUC0-τ ([4]; cohort 3 (0.6 mg), day 1): 3.50858 ng·h/mL
Cmax ([4]; cohort 3 (0.6 mg), day 1): 0.44422 ng/mL
AUC0-inf ([4]; cohort 4 (0.3 mg), day 1): 4.46186 ng·h/mL
AUC0-t ([4]; cohort 4 (0.3 mg), day 1): 3.40306 ng·h/mL
AUC0-τ ([4]; cohort 4 (0.3 mg), day 1): 2.99087 ng·h/mL
Cmax ([4]; cohort 4 (0.3 mg), day 1): 0.40142 ng/mL
AUC0-inf ([4]; cohort 4 (0.3 mg), day 23): 5.45894 ng·h/mL
AUC0-τ ([4]; cohort 4 (0.3 mg), day 23): 4.28075 ng·h/mL
Cmax ([4]; cohort 4 (0.3 mg), day 23): 0.45837 ng/mL
Tmax (median) ([4]; cohort 1 (0.2 mg), day 1): 4.01 h
Tmax (median) ([4]; cohort 1 (0.2 mg), day 23): 3.00 h
Tmax (median) ([4]; cohort 2 (0.4 mg), day 1): 3.51 h
Tmax (median) ([4]; cohort 2 (0.4 mg), day 23): 3.02 h
Tmax (median) ([4]; cohort 3 (0.6 mg), day 1): 4.00 h
Tmax (median) ([4]; cohort 4 (0.3 mg), day 1): 3.61 h
Tmax (median) ([4]; cohort 4 (0.3 mg), day 23): 3.00 h
SMILES: O=C1NC2=Nc3ccc(Cl)c(Cl)c3CN2C1O (centres unmarked) [3-Hydroxy-Anagrelide]

SMILES: O=C1NC2=Nc3ccc(Cl)c(Cl)c3CN2C1O (centres unmarked) [3-hydroxy anagrelide, 6,7-dichloro-3-hydroxy-1,5-dihydro-imidazo[2,1-b]quinazolin-2-one]
AUC0-inf ± RSD (%) [1]: 18.0 ± 35.6 ng·h/mL
Cmax ± RSD (%) [1]: 5.47 ± 56.9 ng/mL
Tmax ± RSD (%) [1]: 1.28 ± 58.1 h
t1/2 ± RSD (%) [1]: 2.5 ± 28.7 h
Observed half-life [2]: 3.9 h
Share of all drug-related products in the plasma [2]: about 45%
In vitro effects on megakaryocytopoiesis relative to anagrelide (cultured megakaryocytes): equipotent
Potency as PDEIII inhibitor relative to anagrelide (PDEIII): 40 times
Terminal half-life [5]: 3.9 h
